Source: US9029401B2 (The Regents of the University of California, priority 2011, dated 2015)
Like-named read-outs stand apart in the source and are kept apart here. Each block holds one compound with its values, some of them ahead of it.

Columns and labels:
[1] = system: ACHN renal cell carcinoma cell line; assay: MTT cell viability assay, ACHN; type: cell-based; conditions: Homo sapiens, 72 h, read-out: EC50 on cell viability, ACHN (Kidney)
Protocol: (§1) Cell-based assays were performed using the described cell lines, grown in the appropriate Growth Mediums containing 10% fetal bovine serum and 1% penicillin-streptomycin. Cancer cells were plated at 15,000 cells/well in 96-well plates and allowed to attach overnight. […] Cell viability was determined after 72 hours incubation periods. To determine anti-proliferative effects of inhibitors, cellular proliferation was determined using the colorimetric MTT cell viability assay kit, as described by the manufacture (ATCC).

human sEH = human sEH (Homo sapiens (Human), UniProt P34913); assay: Inhibitory activity against human sEH; type: biochemical
HepG2 hepatoma cell line = assay: MTT cell viability assay, HepG2; type: cell-based; conditions: for EC50: Homo sapiens, read-out: EC50 on cell viability, HepG2 (Liver)
Protocol: as §1

Huh-7 hepatoma cell line = assay: MTT cell viability assay, Huh-7; type: cell-based; conditions: Homo sapiens, read-out: EC50 on cell viability, Huh-7 (Liver)
Protocol: as §1

Raf-1 = Raf-1 (Homo sapiens (Human), UniProt P04049); assay: In vitro kinase inhibition assay (ADP-Glo), Raf-1; type: biochemical
Protocol: (§2) All measurements included background and control (vehicle only) luminescence readings.
(§3) The kinases Raf-1 and b-Raf (V600E), and their corresponding substrate, MEK1, and Full length recombinant CRAF kinase and its respective substrate, recombinant MEK1, were purchased from US Biological (Swampscott, Mass.). All assays were performed under identical conditions for the Raf isozymes: 10 nM Enzyme, 1 μM MEK1, 10 μM ATP, at 22° C. for 2 hours. […] IC50 values were obtained by determining the change in the ADP production (luminescence signal) at various inhibitor concentrations as compared to the control assay. Individual data sets were performed in duplicate and each IC50 was determined by the average and standard deviation of three separate experiments.
as §3, with “Full” for “The kinases Raf-1 and b-Raf (V600E), and their corresponding substrate, MEK1, and Full”, “at” for “under identical conditions for the Raf isozymes:”, “CRAF,” for “Enzyme,”, “(luminescent” for “(luminescence”, “mean” for “average”

b-Raf (V600E) = b-Raf (V600E) (Homo sapiens (Human), UniProt P15056, V600E); assay: In vitro kinase inhibition assay (ADP-Glo), b-Raf (V600E); type: biochemical
Protocol: as §2, §3

[2] = system: SKBR3 breast cancer cell line; assay: MTT cell viability assay, SKBR3; type: cell-based; conditions: Homo sapiens, read-out: EC50 on cell viability, SKBR3 (Breast)
Protocol: (§4) Cell-based assays were performed using the described cell lines, grown in the appropriate Growth Mediums containing 10% fetal bovine serum and 1% penicillin-streptomycin. Cancer cells were plated at 15,000 cells/well in 96-well plates and allowed to attach overnight. Inhibitors were dissolved in DMSO and then diluted to concentrations ranging from 0.1-25 μM with a final DMSO concentration of 0.1%. Cell viability was determined after 72 hours incubation periods. To determine anti-proliferative effects of inhibitors, cellular proliferation was determined using the colorimetric MTT cell viability assay kit, as described by the manufacture (ATCC).

[3] = system: PC-3 prostate cancer cell line; assay: MTT cell viability assay, PC-3; type: cell-based; conditions: 72 h, read-out: EC50 on cell viability, PC-3 (Prostate)
Protocol: as §4

[4] = system: T47D breast cancer cell line; assay: MTT cell viability assay, T47D; type: cell-based; conditions: Homo sapiens, 72 hours incubation
Protocol: as §4

[5] = 10 nM enzyme, 1 μM MEK1, 10 μM ATP, 22° C., 2 hours, read-out: Raf-1 IC50

Chain of human sEH (P34913 whole entry): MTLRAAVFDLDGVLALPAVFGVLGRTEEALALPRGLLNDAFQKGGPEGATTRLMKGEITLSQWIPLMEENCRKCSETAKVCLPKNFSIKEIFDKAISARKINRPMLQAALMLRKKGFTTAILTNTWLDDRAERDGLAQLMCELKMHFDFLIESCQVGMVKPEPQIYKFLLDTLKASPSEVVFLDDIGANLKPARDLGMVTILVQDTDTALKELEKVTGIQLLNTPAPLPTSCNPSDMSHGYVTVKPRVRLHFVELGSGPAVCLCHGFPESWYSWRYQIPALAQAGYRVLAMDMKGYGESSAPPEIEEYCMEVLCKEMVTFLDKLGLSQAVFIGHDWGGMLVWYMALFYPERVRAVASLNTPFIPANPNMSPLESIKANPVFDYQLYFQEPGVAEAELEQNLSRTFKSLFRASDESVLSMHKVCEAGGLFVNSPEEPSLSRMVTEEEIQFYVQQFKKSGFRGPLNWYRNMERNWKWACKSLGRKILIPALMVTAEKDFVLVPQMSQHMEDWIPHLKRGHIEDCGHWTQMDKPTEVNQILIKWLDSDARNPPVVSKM
Chain of b-Raf (V600E) (P15056 whole entry V600E): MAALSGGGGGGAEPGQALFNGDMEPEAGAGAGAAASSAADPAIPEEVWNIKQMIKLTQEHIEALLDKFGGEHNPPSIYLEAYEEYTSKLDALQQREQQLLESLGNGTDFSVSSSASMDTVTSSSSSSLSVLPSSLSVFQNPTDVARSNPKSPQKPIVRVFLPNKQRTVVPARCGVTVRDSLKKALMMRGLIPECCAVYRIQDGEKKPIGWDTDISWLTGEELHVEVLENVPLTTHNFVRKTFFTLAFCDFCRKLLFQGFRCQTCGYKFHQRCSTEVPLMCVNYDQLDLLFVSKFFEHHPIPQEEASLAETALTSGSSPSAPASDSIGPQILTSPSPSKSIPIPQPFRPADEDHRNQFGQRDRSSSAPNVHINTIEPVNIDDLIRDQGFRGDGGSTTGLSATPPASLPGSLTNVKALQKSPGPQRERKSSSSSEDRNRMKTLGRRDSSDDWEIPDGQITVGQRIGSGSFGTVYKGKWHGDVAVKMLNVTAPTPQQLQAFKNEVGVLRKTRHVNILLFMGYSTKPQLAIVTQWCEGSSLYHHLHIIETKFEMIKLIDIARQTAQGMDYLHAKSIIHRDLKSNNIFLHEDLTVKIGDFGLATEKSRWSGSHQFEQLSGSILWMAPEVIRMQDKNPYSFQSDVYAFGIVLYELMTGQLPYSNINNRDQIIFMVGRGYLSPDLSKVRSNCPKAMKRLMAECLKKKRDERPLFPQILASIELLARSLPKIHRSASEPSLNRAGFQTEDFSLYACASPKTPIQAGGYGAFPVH
Chain of Raf-1 (P04049 whole entry): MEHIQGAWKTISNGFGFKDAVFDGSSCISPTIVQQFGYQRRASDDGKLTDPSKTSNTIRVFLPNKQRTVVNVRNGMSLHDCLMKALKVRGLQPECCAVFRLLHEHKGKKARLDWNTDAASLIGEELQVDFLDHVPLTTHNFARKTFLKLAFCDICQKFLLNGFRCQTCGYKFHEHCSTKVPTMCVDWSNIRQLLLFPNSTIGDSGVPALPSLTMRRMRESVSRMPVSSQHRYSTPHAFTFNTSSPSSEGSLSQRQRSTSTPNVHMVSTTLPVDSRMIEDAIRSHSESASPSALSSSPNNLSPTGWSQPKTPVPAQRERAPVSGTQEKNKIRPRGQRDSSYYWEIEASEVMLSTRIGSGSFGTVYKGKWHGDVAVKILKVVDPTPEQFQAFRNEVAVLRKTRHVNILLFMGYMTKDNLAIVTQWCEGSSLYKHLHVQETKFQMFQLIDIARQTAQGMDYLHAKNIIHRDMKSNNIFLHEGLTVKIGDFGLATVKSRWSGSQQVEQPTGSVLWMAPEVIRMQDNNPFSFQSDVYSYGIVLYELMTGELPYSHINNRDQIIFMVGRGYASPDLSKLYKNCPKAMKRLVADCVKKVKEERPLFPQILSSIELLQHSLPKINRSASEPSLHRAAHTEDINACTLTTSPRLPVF

SMILES: O=C(NC12CC3CC(CC(C3)C1)C2)N[C@H]1CC[C@H](Oc2ccc(C(=O)O)cc2)CC1 [Compound 1471, reference compound]
EC50 [1]: > 25000 nM

IC50 (human sEH; read-out: Human sEH IC50): 3.4 nM
SMILES: CCOC(=O)c1ccc(O[C@H]2CC[C@@H](NC(=O)Nc3ccc(OC(F)(F)F)cc3)CC2)cc1 [Compound 1612, reference compound]

SMILES: O=C(Nc1ccc(OC(F)(F)F)cc1)N[C@H]1CC[C@H](Oc2ccc(C(=O)O)cc2)CC1 [Compound 1728, trans-4-{4-[3-(4-Trifluoromethoxy-phenyl)-ureido]-cyclohexyloxy}-benzoic acid]
Effect on Hep G2 cell viability (dose dependence) (HepG2 hepatoma cell line; FIG. 2): limited effect | Effect on Hep G2 cell viability (dose dependence) (HepG2 hepatoma cell line; FIG. 4): limited effect | EC50 (HepG2 hepatoma cell line; HepG2, 72 h): 15000 nM | Effect on sunitinib's ability to kill cancer cells (HepG2 hepatoma cell line; administered in combination with sunitinib, Hep G2): potentiates | EC50 (Huh-7 hepatoma cell line; Huh-7, 72 h): 20000 nM | EC50 [1]: 15000 nM

SMILES: O=C(Nc1ccc(Cl)cc1)N[C@H]1CC[C@H](Oc2ccc(C(=O)O)cc2)CC1 [Compound 2084, trans-4-{4-[3-(4-Chloro-phenyl)-ureido]-cyclohexyloxy}-benzoic acid]
IC50 (human sEH; read-out: Human sEH IC50): 5.5 nM | IC50 (Raf-1; [5]): > 10000 nM

SMILES: N#Cc1ccc(O[C@H]2CC[C@H](NC(=O)Nc3ccc(Cl)c(C(F)(F)F)c3)CC2)cc1 [Compound 2182, trans-1-(4-Chloro-3-trifluoromethyl-phenyl)-3-[4-(4-cyano-phenoxy)-cyclohexyl]-urea]
IC50 (human sEH): 14.6 nM

SMILES: O=C(Nc1ccc(Cl)c(C(F)(F)F)c1)N[C@H]1CC[C@H](Oc2ccc(C(=O)O)cc2)CC1 [Compound 2221, trans-4-{4-[3-(4-Chloro-3-trifluoromethyl-phenyl)-ureido]-cyclohexyloxy}-benzoic acid]
IC50 (human sEH): 0.5 nM | IC50 (b-Raf (V600E)): > 10000 nM

SMILES: CNC(=O)c1ccc(O[C@H]2CC[C@@H](NC(=O)Nc3ccc(OC(F)(F)F)cc3)CC2)cc1 [Compound 2228, cis-N-Methyl-4-{4-[3-(4-trifluoromethoxy-phenyl)-ureido]-cyclohexyloxy}-benzamide]
IC50 (Raf-1): > 10000 nM

IC50 (human sEH; read-out: Human sEH IC50): 0.5 nM
SMILES: CNC(=O)c1ccc(O[C@H]2CC[C@H](NC(=O)Nc3ccc(Cl)c(C(F)(F)F)c3)CC2)cc1 [Compound 2253, trans-4-{4-[3-(4-Chloro-3-trifluoromethyl-phenyl)-ureido]-cyclohexyloxy}-N-methyl-benzamide]

SMILES: CC(C)(C)OC(=O)c1cc(O[C@H]2CC[C@H](NC(=O)Nc3ccc(Cl)c(C(F)(F)F)c3)CC2)ccn1 [Compound 2280, trans-4-{4-[3-(4-Chloro-3-trifluoromethyl-phenyl)-ureido]-cyclohexyloxy}-pyridine-2-carboxylic acid tert-butyl ester]
IC50 (b-Raf (V600E)): > 10000 nM

SMILES: CNC(=O)c1cc(Oc2ccc(NC(=O)NC34CC5CC(CC(C5)C3)C4)cc2)ccn1 [Compound 2287, 4-[4-(3-Adamantan-1-yl-ureido)-phenoxy]-pyridine-2-carboxylic acid methylamide]
IC50 (human sEH; read-out: Human sEH IC50): 0.5 nM | IC50 (Raf-1; [5]): > 10000 nM | IC50 (b-Raf (V600E)): > 10000 nM

SMILES: O=C(Nc1ccc(Cl)c(C(F)(F)F)c1)N[C@H]1CC[C@H](Oc2ccc(C(F)(F)F)cn2)CC1 [Compound 2288, trans-1-(4-Chloro-3-trifluoromethyl-phenyl)-3-[4-(5-trifluoromethyl-pyridin-2-yloxy)-cyclohexyl]-urea]
IC50 (human sEH; read-out: Human sEH IC50): 9 nM | IC50 (Raf-1; [5]): > 10000 nM | IC50 (b-Raf (V600E)): > 10000 nM

IC50 (human sEH; read-out: Human sEH IC50): 0.5 nM | IC50 (Raf-1; [5]): > 10000 nM
SMILES: CC(C)(C)OC(=O)c1ccc(O[C@H]2CC[C@H](NC(=O)Nc3ccc(Cl)c(C(F)(F)F)c3)CC2)cn1 [Compound 2315, trans-5-{4-[3-(4-Chloro-3-trifluoromethyl-phenyl)-ureido]-cyclohexyloxy}-pyridine-2-carboxylic acid tert-butyl ester]

SMILES: CNC(=O)c1ccc(O[C@H]2CC[C@H](NC(=O)Nc3ccc(Cl)c(C(F)(F)F)c3)CC2)cn1 [Compound 2316, trans-5-{4-[3-(4-Chloro-3-trifluoromethyl-phenyl)-ureido]-cyclohexyloxy}-pyridine-2-carboxylic acid methylamide]
IC50 (human sEH; read-out: Human sEH IC50): 0.5 nM | IC50 (Raf-1; [5]): 175 ± 20 nM | IC50 (b-Raf (V600E)): 1500 nM

inhibition at 10 µM (Raf-1; read-out: Raf-1 % inhibition, at 10 μM concentration): 54% | inhibition at 10 µM (b-Raf (V600E); at 10 μM concentration): 51%
SMILES: CC(C)(C)OC(=O)c1cc(O[C@H]2CC[C@@H](NC(=O)Nc3ccc(Cl)c(C(F)(F)F)c3)CC2)ccn1 [Compound 2318, cis-4-{4-[3-(4-Chloro-3-trifluoromethyl-phenyl)-ureido]-cyclohexyloxy}-pyridine-2-carboxylic acid tert-butyl ester]

IC50 (human sEH; read-out: Human sEH IC50): 0.5 nM | EC50 (HepG2 hepatoma cell line; HepG2, MTT, 72 hours incubation): 7500 nM | EC50 (Huh-7 hepatoma cell line; Huh-7, MTT, 72 hours incubation): 8500 nM | EC50 ([2]; SK-BR-3, MTT, 72 hours incubation): 8000 nM
SMILES: CNC(=O)c1cc(O[C@H]2CC[C@@H](NC(=O)Nc3ccc(Cl)c(C(F)(F)F)c3)CC2)ccn1 [Compound 2319, cis-4-{4-[3-(4-chloro-3-trifluoromethyl-phenyl)-ureido]-cyclohexyloxy}-pyridine-2-carboxylic acid methylamide]

IC50 (human sEH; read-out: Human sEH IC50): 0.9 nM | IC50 (Raf-1; [5]): > 10000 nM
SMILES: O=C(Nc1ccc(C(F)(F)F)cc1)N[C@H]1CC[C@H](Oc2ccc(C(=O)O)cc2)CC1 [Compound 2372, trans-4-{4-[3-(4-Trifluoromethyl-phenyl)-ureido]-cyclohexyloxy}-benzoic acid]

IC50 (human sEH; read-out: Human sEH IC50): 0.5 nM | IC50 (Raf-1; [5]): > 10000 nM
SMILES: CCN(CC)C(=O)c1cc(O[C@H]2CC[C@H](NC(=O)Nc3ccc(Cl)c(C(F)(F)F)c3)CC2)ccn1 [Compound 2574, trans-4-{4-[3-(4-Chloro-3-trifluoromethyl-phenyl)-ureido]-cyclohexyloxy}-pyridine-2-carboxylic acid diethylamide]

IC50 (human sEH; read-out: Human sEH IC50): 0.5 nM | IC50 (Raf-1; [5]): > 10000 nM
SMILES: CNC(=O)c1cc(O[C@H]2CC[C@H](NC(=O)Nc3ccc(OC(F)(F)F)cc3)CC2)ccn1 [Compound 2575, trans-4-{4-[3-(4-Trifluoromethoxy-phenyl)-ureido]-cyclohexyloxy}-pyridine-2-carboxylic acid methylamide]

IC50 (human sEH; read-out: Human sEH IC50): 0.5 nM
SMILES: CCN(CC)C(=O)c1cc(O[C@H]2CC[C@H](NC(=O)Nc3ccc(OC(F)(F)F)cc3)CC2)ccn1 [Compound 2577, trans-4-{4-[3-(4-Trifluoromethoxy-phenyl)-ureido]-cyclohexyloxy}-pyridine-2-carboxylic acid diethylamide]

IC50 (human sEH; read-out: Human sEH IC50): 0.5 nM
SMILES: O=C(Nc1ccc(OC(F)(F)F)cc1)N[C@H]1CC[C@H](Oc2ccnc(C(=O)N3CCCC3)c2)CC1 [Compound 2578, trans-1-{4-[2-(Pyrrolidine-1-carbonyl)-pyridin-4-yloxy]-cyclohexyl}-3-(4-trifluoromethoxy-phenyl)-urea]

IC50 (human sEH; read-out: Human sEH IC50): 0.5 nM
SMILES: N#Cc1ccc(O[C@H]2CC[C@H](NC(=O)Nc3ccc(C(F)(F)F)cc3)CC2)cc1 [Compound 2579, trans-1-[4-(4-Cyano-phenoxy)-cyclohexyl]-3-(4-trifluoromethyl-phenyl)-urea]

IC50 (human sEH; read-out: Human sEH IC50): 0.5 nM
SMILES: N#Cc1ccc(O[C@H]2CC[C@H](NC(=O)Nc3ccc(Cl)cc3)CC2)cc1 [Compound 2580, trans-1-(4-Chloro-phenyl)-3-[4-(4-cyano-phenoxy)-cyclohexyl]-urea]

SMILES: N#Cc1ccc(O[C@H]2CC[C@H](NC(=O)Nc3ccc(OC(F)(F)F)cc3)CC2)cc1 [Compound 2581, trans-1-[4-(4-Cyano-phenoxy)-cyclohexyl]-3-(4-trifluoromethoxy-phenyl)-urea]
IC50 (human sEH; read-out: Human sEH IC50): 0.5 nM

SMILES: CNC(=O)c1cc(Oc2ccc(NC(=O)Nc3ccc(Cl)c(C(F)(F)F)c3)cc2)ccn1 [Sorafenib, reference compound]
EC50 (Huh-7 hepatoma cell line; Huh-7, 72 h): 4200 nM | EC50 [1]: 4000 nM | EC50 [3]: 5500 nM | EC50 [4]: 3000 nM | EC50 ([2]; SK-BR-3, 72 h): 6500 nM
